Laboratory results published in publication PMC8429728, “TNK1 is a ubiquitin-binding and 14-3-3-regulated kinase that can be targeted to block tumor growth” (Nature Communications, 2021).
Read-outs that look alike come from different tables or passages of the source.

Assays:
Experiment in all cases: biochemical
Design in all cases: Reaction Biology 371-kinase panel at Km ATP, per cent enzyme activity relative to DMSO, single dose in duplicate
RON/MST1R = RON/MST1R (Homo sapiens, UniProt Q04912); settings: duplicate measurements, Km ATP
Chain of RON/MST1R (Q04912 whole entry): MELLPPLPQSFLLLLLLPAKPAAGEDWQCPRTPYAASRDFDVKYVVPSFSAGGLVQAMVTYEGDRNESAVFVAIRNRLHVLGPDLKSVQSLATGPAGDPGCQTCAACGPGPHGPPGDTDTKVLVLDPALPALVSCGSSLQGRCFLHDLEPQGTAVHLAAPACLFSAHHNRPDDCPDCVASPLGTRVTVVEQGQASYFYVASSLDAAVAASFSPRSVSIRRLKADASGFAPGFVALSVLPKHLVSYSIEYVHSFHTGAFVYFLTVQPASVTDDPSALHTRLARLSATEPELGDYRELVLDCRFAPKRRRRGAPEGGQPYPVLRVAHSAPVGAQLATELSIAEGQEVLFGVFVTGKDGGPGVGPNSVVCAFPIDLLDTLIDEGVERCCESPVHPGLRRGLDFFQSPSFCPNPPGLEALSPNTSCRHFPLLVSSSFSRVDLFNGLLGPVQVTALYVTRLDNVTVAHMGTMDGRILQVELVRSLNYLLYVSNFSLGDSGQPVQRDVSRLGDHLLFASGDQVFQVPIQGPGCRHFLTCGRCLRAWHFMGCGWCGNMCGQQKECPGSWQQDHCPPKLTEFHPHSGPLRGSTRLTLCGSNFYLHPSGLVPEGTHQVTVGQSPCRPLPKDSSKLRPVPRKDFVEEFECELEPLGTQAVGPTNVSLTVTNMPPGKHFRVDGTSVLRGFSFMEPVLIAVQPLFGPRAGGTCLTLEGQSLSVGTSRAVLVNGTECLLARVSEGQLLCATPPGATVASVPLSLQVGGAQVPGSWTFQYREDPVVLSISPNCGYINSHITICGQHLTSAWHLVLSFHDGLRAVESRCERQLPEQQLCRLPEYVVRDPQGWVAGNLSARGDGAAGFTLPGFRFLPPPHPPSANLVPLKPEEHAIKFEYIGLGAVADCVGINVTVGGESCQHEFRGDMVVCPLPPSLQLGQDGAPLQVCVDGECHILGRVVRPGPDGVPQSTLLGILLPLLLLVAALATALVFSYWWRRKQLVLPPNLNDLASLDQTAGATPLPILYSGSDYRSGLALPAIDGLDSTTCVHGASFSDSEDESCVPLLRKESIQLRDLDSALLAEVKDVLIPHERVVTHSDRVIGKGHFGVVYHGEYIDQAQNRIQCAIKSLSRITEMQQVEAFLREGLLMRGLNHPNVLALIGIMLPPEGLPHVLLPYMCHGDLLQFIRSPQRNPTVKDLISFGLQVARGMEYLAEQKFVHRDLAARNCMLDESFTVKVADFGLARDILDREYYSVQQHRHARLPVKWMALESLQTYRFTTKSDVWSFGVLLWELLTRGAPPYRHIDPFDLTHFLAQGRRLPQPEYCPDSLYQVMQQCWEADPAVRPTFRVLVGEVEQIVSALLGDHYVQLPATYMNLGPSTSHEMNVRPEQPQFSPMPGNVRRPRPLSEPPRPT
Method in brief: (§1)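 Compound screened at 300 nM in vitro across a 371-kinase panel. Enzyme activity expressed as % of DMSO controls. IC50 values came from sigmoidal variable-slope dose-response fits with the bottom fixed at 0.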

HIPK1 = HIPK1 (Homo sapiens, UniProt Q86Z02); settings: duplicate measurements, Km ATP
Method in brief: as §1

PLK2 = PLK2 (Homo sapiens, UniProt Q9NYY3); settings: duplicate measurements, Km ATP
Method in brief: as §1

MRCKb/CDC42BPB = MRCKb/CDC42BPB (Homo sapiens, UniProt Q9Y5S2); settings: duplicate measurements, Km ATP
Method in brief: as §1

CAMK1a = target: T1, CAMK1a (Homo sapiens, UniProt Q14012); settings: duplicate measurements, Km ATP
T1 construct: gene CAMK1
T1 sequence (Q14012 whole entry): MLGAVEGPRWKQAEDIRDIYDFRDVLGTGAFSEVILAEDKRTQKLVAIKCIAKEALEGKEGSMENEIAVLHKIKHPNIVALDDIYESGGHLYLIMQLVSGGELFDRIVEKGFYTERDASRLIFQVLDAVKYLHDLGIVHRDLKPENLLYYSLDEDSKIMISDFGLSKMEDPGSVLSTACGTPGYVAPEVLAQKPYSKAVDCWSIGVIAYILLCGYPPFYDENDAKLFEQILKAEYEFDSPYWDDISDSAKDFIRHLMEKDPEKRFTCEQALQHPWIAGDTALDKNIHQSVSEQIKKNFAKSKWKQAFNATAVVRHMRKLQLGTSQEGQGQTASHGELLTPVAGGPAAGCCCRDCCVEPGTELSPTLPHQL
Method in brief: as §1

ERK7/MAPK15 = ERK7/MAPK15 (Homo sapiens, UniProt Q8TD08); settings: duplicate measurements, Km ATP
Chain of ERK7/MAPK15 (Q8TD08 whole entry): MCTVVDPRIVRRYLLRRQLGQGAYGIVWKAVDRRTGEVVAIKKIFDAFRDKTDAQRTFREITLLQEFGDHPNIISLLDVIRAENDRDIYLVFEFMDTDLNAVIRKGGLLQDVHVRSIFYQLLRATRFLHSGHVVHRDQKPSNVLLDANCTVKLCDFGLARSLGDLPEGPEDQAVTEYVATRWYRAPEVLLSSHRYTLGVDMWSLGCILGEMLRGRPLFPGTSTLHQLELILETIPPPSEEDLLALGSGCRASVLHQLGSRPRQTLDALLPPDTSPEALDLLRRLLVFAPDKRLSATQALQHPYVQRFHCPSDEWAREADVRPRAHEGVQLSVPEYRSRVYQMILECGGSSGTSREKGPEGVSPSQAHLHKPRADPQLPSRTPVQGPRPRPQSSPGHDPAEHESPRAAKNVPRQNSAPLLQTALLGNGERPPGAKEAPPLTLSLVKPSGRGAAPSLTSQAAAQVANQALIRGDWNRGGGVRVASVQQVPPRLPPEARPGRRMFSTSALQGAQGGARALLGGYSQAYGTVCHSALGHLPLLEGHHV
Method in brief: as §1

STK32C/YANK3 = STK32C/YANK3 (Homo sapiens, UniProt Q86UX6); settings: duplicate measurements, Km ATP
Method in brief: as §1

TBK1 = TBK1 (Homo sapiens, UniProt Q9UHD2); settings: duplicate measurements, Km ATP
Method in brief: as §1

MST3/STK24 = MST3/STK24 (Homo sapiens, UniProt Q9Y6E0); settings: duplicate measurements, Km ATP
Chain of MST3/STK24 (Q9Y6E0 whole entry): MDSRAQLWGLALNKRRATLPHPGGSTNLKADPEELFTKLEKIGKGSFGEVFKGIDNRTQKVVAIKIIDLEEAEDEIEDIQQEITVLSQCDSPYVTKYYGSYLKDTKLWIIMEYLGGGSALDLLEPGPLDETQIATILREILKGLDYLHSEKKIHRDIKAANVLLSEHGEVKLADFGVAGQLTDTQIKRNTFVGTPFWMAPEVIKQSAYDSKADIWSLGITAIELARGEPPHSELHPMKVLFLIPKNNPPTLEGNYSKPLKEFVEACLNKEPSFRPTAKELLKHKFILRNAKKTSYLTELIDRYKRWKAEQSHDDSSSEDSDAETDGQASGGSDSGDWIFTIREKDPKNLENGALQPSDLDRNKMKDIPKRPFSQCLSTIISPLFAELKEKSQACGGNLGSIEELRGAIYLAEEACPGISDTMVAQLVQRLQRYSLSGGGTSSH
Method in brief: as §1

BRSK2 = BRSK2 (Homo sapiens, UniProt Q8IWQ3); settings: duplicate measurements, Km ATP
Method in brief: as §1

STK39/STLK3 = STK39/STLK3 (Homo sapiens, UniProt Q9UEW8); settings: duplicate measurements, Km ATP
Method in brief: as §1

ULK1 = ULK1 (Homo sapiens, UniProt O75385); settings: duplicate measurements, Km ATP
Method in brief: as §1

LOK/STK10 = LOK/STK10 (Homo sapiens, UniProt O94804); settings: duplicate measurements, Km ATP
Method in brief: as §1

c-Kit = c-Kit (Homo sapiens, UniProt P10721); settings: duplicate measurements, Km ATP
Chain of c-Kit (P10721 whole entry): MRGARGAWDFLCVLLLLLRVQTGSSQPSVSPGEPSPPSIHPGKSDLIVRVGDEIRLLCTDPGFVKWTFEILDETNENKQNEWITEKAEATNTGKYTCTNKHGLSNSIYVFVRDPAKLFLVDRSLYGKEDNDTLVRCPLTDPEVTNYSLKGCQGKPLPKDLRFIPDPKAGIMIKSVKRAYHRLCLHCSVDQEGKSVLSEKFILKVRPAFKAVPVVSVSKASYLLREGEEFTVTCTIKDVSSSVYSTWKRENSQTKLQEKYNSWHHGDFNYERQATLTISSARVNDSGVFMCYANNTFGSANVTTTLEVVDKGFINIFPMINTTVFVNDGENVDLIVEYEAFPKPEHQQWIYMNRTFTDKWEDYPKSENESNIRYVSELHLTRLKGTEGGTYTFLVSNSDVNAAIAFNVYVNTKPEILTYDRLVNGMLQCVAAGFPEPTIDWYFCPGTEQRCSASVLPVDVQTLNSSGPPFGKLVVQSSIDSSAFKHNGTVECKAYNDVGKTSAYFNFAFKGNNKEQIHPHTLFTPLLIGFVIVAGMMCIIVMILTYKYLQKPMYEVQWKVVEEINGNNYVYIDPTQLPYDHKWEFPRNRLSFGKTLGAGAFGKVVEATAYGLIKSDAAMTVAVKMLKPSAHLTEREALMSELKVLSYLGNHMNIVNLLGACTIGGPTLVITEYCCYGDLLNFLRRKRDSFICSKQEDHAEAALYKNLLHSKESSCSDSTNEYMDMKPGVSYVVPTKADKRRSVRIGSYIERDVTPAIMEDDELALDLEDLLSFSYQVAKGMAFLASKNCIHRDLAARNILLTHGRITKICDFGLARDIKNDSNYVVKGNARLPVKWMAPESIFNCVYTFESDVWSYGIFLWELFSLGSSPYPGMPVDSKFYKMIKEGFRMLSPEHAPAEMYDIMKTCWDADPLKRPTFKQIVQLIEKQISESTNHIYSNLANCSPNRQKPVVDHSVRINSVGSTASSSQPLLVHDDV
Method in brief: as §1

TYRO3/SKY = TYRO3/SKY (Homo sapiens, UniProt Q06418); settings: duplicate measurements, Km ATP; read-out: % Enzyme Activity (relative to DMSO controls) / TP-0005801 (0.3µM) / Data 1
Method in brief: as §1

CDK5/p35 = target: T2, CDK5/p35 (Homo sapiens, UniProt Q00535); settings: duplicate measurements, Km ATP
T2 construct: p35
Method in brief: as §1

CDK7/cyclin H = CDK7/cyclin H (Homo sapiens, UniProt P50613); settings: duplicate measurements, Km ATP
Chain of CDK7/cyclin H (P50613 whole entry): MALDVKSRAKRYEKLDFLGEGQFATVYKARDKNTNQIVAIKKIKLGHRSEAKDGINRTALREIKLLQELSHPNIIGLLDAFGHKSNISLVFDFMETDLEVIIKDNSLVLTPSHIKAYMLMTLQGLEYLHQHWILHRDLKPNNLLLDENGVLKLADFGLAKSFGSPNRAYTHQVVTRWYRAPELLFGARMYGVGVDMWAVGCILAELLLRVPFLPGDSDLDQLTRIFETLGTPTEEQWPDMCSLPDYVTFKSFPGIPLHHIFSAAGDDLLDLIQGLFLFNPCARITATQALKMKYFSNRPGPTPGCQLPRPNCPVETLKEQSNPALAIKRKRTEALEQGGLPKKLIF
Chain of CDK7/cyclin H (P51946 whole entry partner): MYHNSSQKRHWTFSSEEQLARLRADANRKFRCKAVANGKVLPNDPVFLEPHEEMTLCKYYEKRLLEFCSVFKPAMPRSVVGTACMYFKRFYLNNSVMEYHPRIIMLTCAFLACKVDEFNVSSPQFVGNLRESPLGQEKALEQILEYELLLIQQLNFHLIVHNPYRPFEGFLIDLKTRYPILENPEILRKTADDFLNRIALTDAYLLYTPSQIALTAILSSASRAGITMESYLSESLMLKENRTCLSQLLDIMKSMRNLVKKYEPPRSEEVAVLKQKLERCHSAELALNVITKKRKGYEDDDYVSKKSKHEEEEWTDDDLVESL
Method in brief: as §1

PKCzeta = target: T3, PKCzeta (Homo sapiens, UniProt Q05513); settings: duplicate measurements, Km ATP
T3 construct: gene PRKCZ
T3 sequence (Q05513 whole entry): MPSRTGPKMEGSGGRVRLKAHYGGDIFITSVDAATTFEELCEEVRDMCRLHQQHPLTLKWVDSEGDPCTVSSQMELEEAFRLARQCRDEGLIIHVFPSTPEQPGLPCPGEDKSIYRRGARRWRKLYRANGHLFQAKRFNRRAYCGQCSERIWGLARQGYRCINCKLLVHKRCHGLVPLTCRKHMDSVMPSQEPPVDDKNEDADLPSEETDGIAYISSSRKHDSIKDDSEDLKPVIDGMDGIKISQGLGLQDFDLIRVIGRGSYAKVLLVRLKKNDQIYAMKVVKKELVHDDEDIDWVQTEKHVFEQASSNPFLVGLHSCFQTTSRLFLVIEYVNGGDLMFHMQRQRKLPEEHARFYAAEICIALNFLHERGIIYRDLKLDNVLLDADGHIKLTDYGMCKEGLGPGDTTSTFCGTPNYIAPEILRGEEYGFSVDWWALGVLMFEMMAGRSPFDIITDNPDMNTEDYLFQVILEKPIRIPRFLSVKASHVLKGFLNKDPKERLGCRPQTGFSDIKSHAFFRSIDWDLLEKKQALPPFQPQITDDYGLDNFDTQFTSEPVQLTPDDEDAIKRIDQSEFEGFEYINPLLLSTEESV
Method in brief: as §1

CAMK1d = CAMK1d (Homo sapiens, UniProt Q8IU85); settings: duplicate measurements, Km ATP
Method in brief: as §1

TGFBR2 = TGFBR2 (Homo sapiens, UniProt P37173); settings: duplicate measurements, Km ATP
Method in brief: as §1

[1] = read-out: % Enzyme Activity (relative to DMSO controls) / TP-0005801 (0.3µM) / Data 1
[2] = read-out: % Enzyme Activity (relative to DMSO controls) / TP-0005801 (0.3µM) / Data 2

COc1cc(N2CCN(C)CC2)c(C)cc1Nc1ncc(Br)c(Nc2cccnc2N(C)C)n1 [TP-5801]
remaining activity at 0.3 µM (RON/MST1R; [1]): 94%
remaining activity at 0.3 µM (RON/MST1R; [2]): 92.4%
remaining activity at 0.3 µM (HIPK1; [1]): 90.8%
remaining activity at 0.3 µM (HIPK1; [2]): 89.2%
remaining activity at 0.3 µM (PLK2; [1]): 84%
remaining activity at 0.3 µM (PLK2; [2]): 83.9%
remaining activity at 0.3 µM (MRCKb/CDC42BPB; [1]): 99.2%
remaining activity at 0.3 µM (MRCKb/CDC42BPB; [2]): 98%
remaining activity at 0.3 µM (CAMK1a; [1]): 92.6%
remaining activity at 0.3 µM (CAMK1a; [2]): 91.5%
remaining activity at 0.3 µM (ERK7/MAPK15; [1]): 97.2%
remaining activity at 0.3 µM (ERK7/MAPK15; [2]): 96.4%
remaining activity at 0.3 µM (STK32C/YANK3; [1]): 90.2%
remaining activity at 0.3 µM (STK32C/YANK3; [2]): 83.2%
remaining activity at 0.3 µM (TBK1; [1]): 97.8%
remaining activity at 0.3 µM (TBK1; [2]): 96.4%
remaining activity at 0.3 µM (MST3/STK24; [1]): 106%
remaining activity at 0.3 µM (MST3/STK24; [2]): 103%
remaining activity at 0.3 µM (BRSK2; [1]): 119%
remaining activity at 0.3 µM (BRSK2; [2]): 116%
remaining activity at 0.3 µM (STK39/STLK3; [1]): 61.2%
remaining activity at 0.3 µM (STK39/STLK3; [2]): 61.1%
remaining activity at 0.3 µM (ULK1; [1]): 49.9%
remaining activity at 0.3 µM (ULK1; [2]): 49.7%
remaining activity at 0.3 µM (LOK/STK10; [1]): 74.7%
remaining activity at 0.3 µM (LOK/STK10; [2]): 73.7%
remaining activity at 0.3 µM (c-Kit; [1]): 85.3%
remaining activity at 0.3 µM (c-Kit; [2]): 85.1%
remaining activity at 0.3 µM (TYRO3/SKY): 105%
remaining activity at 0.3 µM (CDK5/p35; [1]): 99.5%
remaining activity at 0.3 µM (CDK5/p35; [2]): 99.1%
remaining activity at 0.3 µM (CDK7/cyclin H; [1]): 103%
remaining activity at 0.3 µM (CDK7/cyclin H; [2]): 101%
remaining activity at 0.3 µM (PKCzeta; [1]): 97.2%
remaining activity at 0.3 µM (PKCzeta; [2]): 97.1%
remaining activity at 0.3 µM (CAMK1d; [1]): 75.7%
remaining activity at 0.3 µM (CAMK1d; [2]): 73.7%
remaining activity at 0.3 µM (TGFBR2; [1]): 99.3%
remaining activity at 0.3 µM (TGFBR2; [2]): 97.8%
